Test: LogP of the perfume ingredients
Assay type: physicochemical
Conditions: perfume ingredients of Table 1a

| SMILES | logP |
| --- | --- |
| C=CC(C)CCCC(C)(C)O (stereo not shown) [Dihydromyrcenol] | 3.47 |
| C=CC(C)CCCC(C)(C)OC(C)=O (stereo not shown) [Dihydromyrcenyl acetate] | 4.47 |
| CC1C(C)(C)C2=C(C(=O)CCC2)C1(C)C (stereo not shown) [Cashmeran®, 1,2,3,5,6,7-Hexahydro-1,2,3,3-pentamethyl-4h-inden-4-one] | 4.31 |

Same assay, conditions: perfume ingredients of Table 1a; read-out: LogP

| SMILES | logP |
| --- | --- |
| C=CC(C)(CCC=C(C)C)OC(C)=O (stereo not shown) [Linalyl acetate] | 4.39 |
| CC(=O)C(C)=CC1C(C)=CCCC1(C)C (stereo not shown) [Isoraldeine® 70, 3-Methyl-4-(2,6,6-trimethyl-2cyclohexen-1-yl)-3-buten-2-one] | 4.84 |
| CC12CCC(CC1)C(C)(C)O2 [Eucalyptol] | 3.13 |
| CC(C)=CCCC1=CCC(C)(C=O)CC1 (stereo not shown) [Precyclemone B, 1-Methyl-4-(4-methyl-3-pentenyl)cyclohex-3-ene-1-carboxaldehyde] | 5.18 |
| CC12CCC(CC1=O)C2(C)C (stereo not shown) [Camphor] | 3.04 |
| CC(C)[C@@H]1CC[C@@H](C)CC1=O [Menthone] | 2.87 |
| CCCCCCCCCC(C)C=O (stereo not shown) [2-Methylundecanal] | 4.67 |
